What all share (type): cell-based
The target of series [1] is T1, ACSS2 (Homo sapiens, UniProt Q9NR19).
T1 construct: endogenous fatty acid synthesis activity in the human HCT-15 cancer cell line; endogenous in cells; host or cells: HCT-15
Put plainly: Cellular assay of 14C acetate incorporation into fatty acids (IC50 ACSS2 cellular lipids). The following applies: HCT-15 cells. A digest of the protocol:
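Human HCT-15 cells, 24 h on collagen, pre-incubated with compound 2 h at 37 °C in RPMI 1640/10 mM HEPES (≤0.1% DMSO), then 2 h with 14C-acetate plus AlamarBlue as viability check. Lysis at 70 °C, acidified fatty acids captured on scintillant plates; 14C incorporation counted as CPM.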

In series [2] the target is T1, ACSS2. Put plainly: Cellular assay of 14C acetate incorporation into histones (IC50 ACSS2 cellular histone). The settings on record: HCT-15 cells. A digest of the protocol:
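Human HCT-15 cells preincubated 1 h with compound (0.25% DMSO final), then pulsed 3 h with 14C-acetate. Histones were acid-extracted (0.2 M HCl, overnight, 4° C) after Triton lysis in sodium-butyrate buffer; incorporated 14C counted by liquid scintillation (CPM) to give IC50.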

Another series has as its system CHO-K1 cells. Put plainly: Micronucleus assay (MNT) in vitro. The following applies: 24 hrs treatment, 0.2 µM to 100 µM. Also on record: key: A: negative, putative negative (micronuclei detected beyond threshold of 60% cyctotoxicity); B: positive. As to the method:
The in vitro MNT assay is performed in CHO-K1 cells due to their stable and welI-characterized karyotype, high sensitivity and suitability for a high content imaging approach. They have a basal spontaneous micronucleus frequency of 3-4%.
24 hrs after plating CHO-K1 cells are treated with test compounds for 24 hrs (in duplicates; fixed concentration ranges from 0.2 µM to 100 µM in 2-fold dilution steps). After a medium change cells are incubated for 24 hrs with Cytochalasin B to block cytokinesis and are then fixed and nuclei / micronuclei visualized with a DNA stain. Images are acquired with the Molecular Devices high content imagers IXU or IXM and are analyzed with the dedicated MetaXpress software micronucleus module. Criteria for scoring of micronuclei (MN) are the following: • diameter of the MN should be less than ⅓ of the main nucleus • MN should be separated from or marginally overlap with main nucleus (= no blebs) • MN should have similar staining as the main nucleus At least 1000 binucleated cells are evaluated per treatment replicate. Mitomycin C is used as reference stimulator of micronucleus formation. Cytotoxicity is evaluated in parallel and defined by comparing total nuclei count in compound-treated samples to neutral control samples treated with vehicle only (1% DMSO) (100% cytotoxicity means all cells are dead or lost).
A test compound is regarded as POSITIVE if generation of micronuclei and exhibition of less than 60% cytotoxicity at the same concentration can be observed.
Compounds are scored only in the soluble concentration range. Experimental data of the compounds shown in Table 1 in the MNT assay are shown in Table 2 below and classified in the following groups: […]

Each structure is given as a SMILES string.

T1 sequence (Q9NR19 whole entry): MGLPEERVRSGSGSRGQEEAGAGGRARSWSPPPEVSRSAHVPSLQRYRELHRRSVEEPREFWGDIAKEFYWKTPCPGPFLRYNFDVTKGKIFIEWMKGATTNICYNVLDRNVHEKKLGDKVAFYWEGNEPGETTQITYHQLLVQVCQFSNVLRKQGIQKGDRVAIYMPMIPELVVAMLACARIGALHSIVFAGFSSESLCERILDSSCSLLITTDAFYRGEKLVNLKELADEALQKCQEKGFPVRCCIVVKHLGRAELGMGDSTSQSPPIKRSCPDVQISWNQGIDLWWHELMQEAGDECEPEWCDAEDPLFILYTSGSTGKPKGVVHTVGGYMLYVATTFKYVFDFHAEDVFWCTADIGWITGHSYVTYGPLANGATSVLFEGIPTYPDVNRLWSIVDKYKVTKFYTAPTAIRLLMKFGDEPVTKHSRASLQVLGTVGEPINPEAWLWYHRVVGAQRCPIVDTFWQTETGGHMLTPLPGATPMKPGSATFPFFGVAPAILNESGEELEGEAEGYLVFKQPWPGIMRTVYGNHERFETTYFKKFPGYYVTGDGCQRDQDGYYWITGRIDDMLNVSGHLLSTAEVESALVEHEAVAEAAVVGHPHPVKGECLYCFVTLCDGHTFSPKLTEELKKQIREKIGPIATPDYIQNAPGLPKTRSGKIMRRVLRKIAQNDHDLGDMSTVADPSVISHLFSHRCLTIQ

A word on the IC50: it is the concentration that gives 50% inhibition. For the compound `CCc1c(C(O)(c2ccccc2F)c2ccccc2F)nn2ccc(C(=O)Nc3ncn(CC)n3)cc12` [Compound 5, 2-[Bis-(2-fluoro-phenyl)-hydroxy-methyl]-3-ethyl-pyrazolo[1,5-a]pyridine-5-carboxylic acid (1-ethyl-1H-[1,2,4]triazol-3-yl)-amide], the IC50 lay in the range of 0.01 to 1 nM on ACSS2 [1] and 1 to 10 nM against ACSS2 [2]. The MNT result in the series on CHO-K1 cells was “A”.

`CCc1c(C(O)(c2ccccc2)c2ccccc2)nn2ccc(C(=O)Nc3ncn(CC)n3)cc12` [Compound 9, 3-Ethyl-2-(hydroxy-diphenyl-methyl)-pyrazolo[1,5-a]pyridine-5-carboxylic acid (1-ethyl-1H-[1,2,4]triazol-3-yl)-amide]: the IC50 at ACSS2 [1] and against ACSS2 [2] was 0.01 to 1 nM in each case. Further, the MNT entry with CHO-K1 cells is listed as “B”.

As to `CCc1c(C(O)(c2ccccc2)c2ccccc2)nn2cc(Cl)c(C(=O)Nc3cnn(CC)c3)cc12` [Compound 6, 6-Chloro-3-ethyl-2-(hydroxy-diphenylmethyl)-pyrazolo[1,5-a]pyridine-5-carboxylic acid (1-ethyl-1H-pyrazol-4-yl)-amide], the IC50 against ACSS2 [1] and against ACSS2 [2] was 1 to 10 nM throughout. Also, the MNT result in the series on CHO-K1 cells is “A”.

On to `CCc1c(C(O)(c2ccccc2)c2ccccc2)nn2cc(OC)c(C(=O)Nc3ncn(CC)n3)cc12` [Compound 11, 3-Ethyl-2-(hydroxy-diphenyl-methyl)-6-methoxy-pyrazolo[1,5-a]pyridine-5-carboxylic acid (1-ethyl-1H-[1,2,4]triazol-3-yl)-amide], for which the IC50 was in the range of 1 to 10 nM against ACSS2 [1] and 0.01 to 1 nM at ACSS2 [2]. Also, the MNT entry with CHO-K1 cells is recorded as “A”.

With `CCn1cnc(NC(=O)c2cc3c(nc2OC)nc(C(O)(c2ccccc2F)c2ccc(OC(F)F)cc2F)n3CC)n1` (racemic) [Compound 94, 2-{[4-(difluoromethoxy)-2-fluorophenyl](2-fluorophenyl)hydroxymethyl}-1-ethyl-N-(1-ethyl-1H-1,2,4-triazol-3-yl)-5-methoxy-1H-imidazo[4,5-b]pyridine-6-carboxamide], the IC50 against ACSS2 [1] and against ACSS2 [2] was 1 to 10 nM each time. The MNT entry in the series with CHO-K1 cells is on record as “A”.

On to `CCn1cnc(NC(=O)c2cc3c(nc2F)nc(C(O)(c2ccccc2)c2ccccc2)n3CC)n1` [Compound 89, 1-ethyl-N-(1-ethyl-1H-1,2,4-triazol-3-yl)-5-fluoro-2-(hydroxydiphenylmethyl)-1H-imidazo[4,5-b]pyridine-6-carboxamide], for which the IC50 against ACSS2 [1] and against ACSS2 [2] was 1 to 10 nM throughout. Also, in the series on CHO-K1 cells, the MNT result is “A”.

For the compound `CCc1c(C(O)(c2ccccc2)c2ccccc2)nn2cc(Cl)c(C(=O)Nc3ncn(CC)n3)cc12` [Compound 1, 6-Chloro-3-ethyl-2-(hydroxy-diphenylmethyl)-pyrazolo[1,5-a]pyridine-5-carboxylic acid (1-ethyl-1H-[1,2,4]triazol-3-yl)-amide], the half-maximal inhibitory concentration (IC50) against ACSS2 [1] and at ACSS2 [2] was 0.01 to 1 nM each time. For the same compound, in the series on CHO-K1 cells, the MNT entry is “A”.

As to `CCc1c(C(O)(c2ccccc2)c2ccccc2)nc2cc(Cl)c(C(=O)Nc3cnn(CC)c3)cn12` [Compound 19, 7-Chloro-3-ethyl-2-(hydroxy-diphenylmethyl)-imidazo[1,2-a]pyridine-6-carboxylic acid (1-ethyl-1H-pyrazol-4-yl)-amide], the IC50 against ACSS2 [1] and against ACSS2 [2] was 10 to 100 nM each time. Further, the MNT entry in the series on CHO-K1 cells is “A”.

In the case of `CCc1c(C(O)(c2ccccc2)c2ccccc2)nc2cc(Cl)c(C(=O)Nc3ncn(CC)n3)cn12` [Compound 14, 7-Chloro-3-ethyl-2-(hydroxy-diphenylmethyl)-imidazo[1,2-a]pyridine-6-carboxylic acid (1-ethyl-1H-[1,2,4]triazol-3-yl)-amide], the IC50 on ACSS2 [1] and at ACSS2 [2] was 1 to 10 nM in each case. Besides, the MNT result with CHO-K1 cells is recorded as “A”.

For the compound `CCc1c(C(O)(c2ccccc2F)c2ccccc2F)nn2cc(Cl)c(C(=O)Nc3ncn(CC)n3)cc12` [Compound 2, 2-[Bis-(2-fluoro-phenyl)-hydroxy-methyl]-6-chloro-3-ethyl-pyrazolo[1,5-a]pyridine-5-carboxylic acid (1-ethyl-1H-[1,2,4]triazol-3-yl)-amide], the concentration for half-maximal inhibition (IC50) at ACSS2 [1] and on ACSS2 [2] was 0.01 to 1 nM in each case. Besides, the MNT entry in the series with CHO-K1 cells is reported as “A”.

Turning to `CCc1c(C(O)(c2ccccc2)c2ccccn2)nc2cc(OC)c(C(=O)Nc3ncn(CC)n3)cn12` (racemic) [Compound 16, 3-Ethyl-2-(hydroxy-phenyl-pyridin-2-yl-methyl)-7-methoxy-imidazo[1,2-a]pyridine-6-carboxylic acid (1-ethyl-1H-[1,2,4]triazol-3-yl)-amide], the IC50 at ACSS2 [1] lay within 10 to 100 nM; against ACSS2 [2], 1 to 10 nM. Besides, in the series with CHO-K1 cells, the MNT entry was “A”.

As to `CCc1c(C(O)(c2ccccc2F)c2ccccc2F)nc2cc(Cl)c(C(=O)Nc3ncn(CC)n3)cn12` [Compound 31, 2-[Bis-(2-fluoro-phenyl)-hydroxy-methyl]-7-chloro-3-ethyl-imidazo[1,2-a]pyridine-6-carboxylic acid (1-ethyl-1H-[1,2,4]triazol-3-yl)-amide], the figures for the IC50 on ACSS2 [1] and against ACSS2 [2] were 1 to 10 nM and 0.01 to 1 nM, respectively. The MNT entry in the series on CHO-K1 cells is listed as “A”.

Consider `CCc1c(C(O)(c2ccccc2)c2ccccc2)nn2cc(OC)c(C(=O)Nc3cnn(CC)c3)cc12` [Compound 8, 3-Ethyl-2-(hydroxy-diphenyl-methyl)-6-methoxy-pyrazolo[1,5-a]pyridine-5-carboxylic acid (1-ethyl-1H-pyrazol-4-yl)-amide], for which the results for the IC50 against ACSS2 [1] and at ACSS2 [2] were 10 to 100 nM and 1 to 10 nM, respectively. The MNT entry with CHO-K1 cells was “A”.

Regarding `CCc1c(C(O)(c2ccccc2)c2ccccc2)nc2cc(OC)c(C(=O)Nc3ncn(CC)n3)cn12` [Compound 24, 3-Ethyl-2-(hydroxy-diphenyl-methyl)-7-methoxy-imidazo[1,2-a]pyridine-6-carboxylic acid (1-ethyl-1H-[1,2,4]triazol-3-yl)-amide], the IC50 against ACSS2 [1] was in the range of 1 to 10 nM; against ACSS2 [2], 0.01 to 1 nM. Also, the MNT entry with CHO-K1 cells is reported as “A”.

The values above are taken from US20230271956A1, “AMIDE DERIVATIVES” (Merck Patent GmbH, priority 2020, published 2023).
